Test results from patent US9802899B2, “Heterocyclic compounds as pesticides” (BAYER CROPSCIENCE AG, priority 2012, dated 2017).

Assay: Determination of the log P values by HPLC (formic acid method)
Type: physicochemical
Conditions: reversed-phase column (C 18), acidic range (pH 3.4), 55° C.; for chromatographic logP: reversed-phase HPLC column (C 18)
Description: 1) Description of Method for Determination of the Log P Values (Formic Acid Method)
Eluents for determination in the acidic range (pH 3.4):
Eluent A: acetonitrile+1 ml of formic acid/liter. Eluent B: water+0.9 ml of formic acid/liter.
The lambda max values were determined in the maxima of the chromatographic signals using the UV spectra from 200 nm to 400 nm.

log P	chromatographic logP	Compound
2.52	–	N#Cc1cc(F)ccc1-n1ccc(NC(=O)c2ccccc2Cl)n1 [Compound I-1-630]
2.61	–	O=C(Nc1ccn(-c2ncc(Cl)cc2Cl)n1)c1ccc(F)cc1C(F)(F)F [Compound I-1-436]
2.93	–	O=C(Nc1ccn(-c2c(F)cccc2F)n1)c1cccc(Cl)c1Cl [Compound I-1-266]
3.10	–	O=C(Nc1ccn(-c2ccccc2Cl)n1)c1cccnc1OC(F)(F)F [Compound I-1-344]
3.33	–	O=C(Nc1ccn(-c2c(F)cccc2F)n1)c1snc(Cl)c1Cl [Compound I-1-115]
3.08	–	CN(C(=O)c1ccccc1C(F)(F)F)c1ccn(-c2c(F)cccc2F)n1 [Compound I-1-253]
2.57	–	Cc1cc(NC(=O)c2ncccc2C(F)(F)F)nn1-c1ccccc1Cl [Compound I-1-376]
2.98	–	O=C(Nc1ccn(-c2ncc(F)cc2F)n1)c1c(C(F)(F)F)cc(F)c(F)c1F [Compound I-1-516]
–	3.99	N#Cc1c(C(F)(F)F)cc(C2CC2)nc1-n1ccc(NC(=O)c2ccccc2C(F)(F)F)n1 [Compound I-1-570, N-{1-[3-Cyano-6-cyclopropyl-4-(trifluoromethyl)pyridin-2-yl]-1H-pyrazol-3-yl}-2-(trifluoromethyl)benzamide]
1.69	–	CS(=O)(=O)c1ccccc1C(=O)Nc1ccn(-c2ncc(F)cc2F)n1 [Compound I-1-462]
3.44	–	C=CCN(C(=O)c1ccccc1C(F)(F)F)c1ccn(-c2c(F)cccc2F)n1 [Compound I-1-255]
–	1.97	Nc1ccn(-c2cccc(Cl)c2Cl)n1 [1-(2,3-Dichlorophenyl)-1H-pyrazole-3-amine]
3.28	–	CCC(C)n1ncc(I)c1C(=O)Nc1ccn(-c2ncc(F)cc2F)n1 (stereo not shown) [Compound I-1-456]
4.45	–	Cc1ccccc1C(=O)N(C(=O)c1cccnc1C)C1=NN(c2c(F)cccc2F)CC1 [Compound I-4-6]
2.34	–	Cc1nn(C)c(C(=O)Nc2ccn(-c3c(F)cccc3F)n2)c1C(F)F [Compound I-1-294]
2.46	–	O=C(Nc1nn(-c2ccccc2Br)nc1Cl)c1cccnc1Cl [Compound I-2-31]
2.72	–	CC(C)c1nn(C)c(C(=O)Nc2ccn(-c3ncc(F)cc3F)n2)c1[N+](=O)[O-] [Compound I-1-509]
3.47	–	CC(C)Cn1ncc(I)c1C(=O)Nc1ccn(-c2c(F)cccc2F)n1 [Compound I-1-323]
1.47	–	CCc1ncccc1C(=O)Nc1ccn(-c2c(F)cccc2F)n1 [Compound I-1-275]
2.97	–	CC(=O)N(C(=O)c1ccccc1C(F)(F)F)c1ccn(-c2ncc(F)cc2F)n1 [Compound I-1-142]
3.84	–	CCc1cc(NC(=O)c2c(F)cccc2F)nn1-c1ccc(F)cc1F [Compound I-1-207]
1.67	–	Cn1ncnc1C(=O)Nc1ccn(-c2ncc(F)cc2F)n1 [Compound I-1-449]
2.53	–	O=C(Nc1ccn(-c2ncc(F)cc2F)n1)c1ccsc1I [Compound I-1-494]
–	1.15	Nc1ccn(-c2cc(F)cnc2F)n1 [1-(2,5-difluoropyridin-3-yl)-1H-pyrazole-3-amine]
3.29	–	O=C(Nc1ccn(-c2cccc(F)c2F)n1)c1ncccc1C(F)(F)F [Compound I-1-68]
2.91	–	CCOc1c(F)cccc1-n1ccc(NC(=O)c2ccccc2Br)n1 [Compound I-1-396]
2.89	–	O=C(Nc1ccn(-c2c(F)cccc2F)n1)c1ccccc1C1CC1 [Compound I-1-273]

log P	chromatographic logP	Compound
3.05	–	C#CCN(C(=O)c1ccccc1C(F)(F)F)c1ccn(-c2ncc(F)cc2F)n1 [Compound I-1-470]
2.03	–	Cn1ncc(F)c1C(=O)Nc1ccn(-c2ncc(F)cc2F)n1 [Compound I-1-538]
2.45	–	N#Cc1c(F)cccc1-n1ccc(NC(=O)c2c(F)cccc2F)n1 [Compound I-1-619]
2.46	–	O=C(Nc1ccn(-c2ncnc(F)c2F)n1)c1ccccc1Br [Compound I-1-170]
3.40	–	O=C(Nc1ccn(-c2nccc(-c3ccc(F)cc3)c2F)n1)c1ccccc1C(F)(F)F [Compound I-1-642]
3.05	–	O=C(Nc1ccn(-c2c(Cl)cccc2Cl)n1)c1ccccc1C(F)(F)F [Compound I-1-120]
3.43	–	O=C(Nc1ccn(-c2ncc(C(F)(F)F)cc2Cl)n1)c1ccccc1I [Compound I-1-421]
2.43	–	O=C(Nc1cnn(-c2ncc(F)cc2F)n1)c1ccccc1C(F)(F)F [Compound I-2-66]
2.23	–	Cn1ncc(Cl)c1C(=O)Nc1ccn(-c2ncc(F)cc2F)n1 [Compound I-1-529]
3.18	–	O=C(Nc1nn(-c2ccccc2Cl)cc1I)c1ccccc1I [Compound I-1-367]
–	2.96	O=C(Nc1ccn(-c2nccc(I)c2F)n1)c1ccccc1C(F)(F)F [Compound I-1-576, N-[1-(3-Fluoro-4-iodopyridin-2-yl)-1H-pyrazol-3-yl]-2-(trifluoromethyl)benzamide]
2.42	–	CC1=C(C(=O)Nc2ccn(-c3c(F)cccc3F)n2)OCCO1 [Compound I-1-615]
2.09	–	O=C(Nc1cnn(-c2c(F)cccc2F)n1)c1cccnc1Br [Compound I-2-37]
3.25	–	O=C(Nc1ccn(-c2cc(F)ccc2F)n1)c1ccsc1I [Compound I-1-219]
3.28	–	O=C(Nc1cnn(-c2ncc(C(F)(F)F)cc2Cl)n1)c1ccccc1I [Compound I-2-75]
3.25	–	C#CCN(C(=O)c1ccccc1Cl)c1ccn(-c2ccccc2Cl)n1 [Compound I-1-23]
2.75	–	O=C(NC1=NN(c2c(F)cccc2F)CC1)c1ccccc1Cl [Compound I-4-1]
3.14	–	O=C(Nc1ccn(-c2cc(F)ccc2F)n1)c1occc1I [Compound I-1-222]
2.55	–	COc1ccccc1C(=O)Nc1ccn(-c2ncc(F)cc2F)n1 [Compound I-1-496]
2.20	–	O=C(Nc1cnn(-c2ncccc2F)n1)c1ccsc1I [Compound I-2-50]
2.13	–	O=C(Nc1ccn(-c2ncc(F)cn2)n1)c1ccccc1C(F)(F)F [Compound I-1-600]
3.59	–	O=C(c1ccccc1C(F)(F)F)N(CC(F)(F)F)c1ccn(-c2c(F)cccc2F)n1 [Compound I-1-265]
2.53	–	N#Cc1ccccc1-n1ccc(NC(=O)c2ccccc2I)n1 [Compound I-1-394]
3.28	–	CC(C)n1nc([N+](=O)[O-])c(Cl)c1C(=O)Nc1ccn(-c2c(F)cccc2F)n1 [Compound I-1-310]
2.27	–	Cn1nc(C(F)F)c(C(=O)Nc2ccn(-c3c(F)cccc3F)n2)c1F [Compound I-1-283]
–	1.25	Cc1nc(-n2ccc(N)n2)c(F)cc1F [1-(3,5-Difluoro-6-methylpyridin-2-yl)-1H-pyrazole-3-amine]
3.58	–	Cc1cc(NC(=O)c2ccccc2Cl)nn1-c1ccc(F)cc1F [Compound I-1-212]

log P	chromatographic logP	Compound
3.04	–	O=C(Nc1ccn(-c2nc(F)c(F)cc2F)n1)c1ccccc1I [Compound I-1-165]
3.31	–	O=C(Nc1ccn(-c2cccc(Cl)c2F)n1)c1ccccc1Br [Compound I-1-557]
2.05	–	O=C(Nc1ccn(-c2ncc(F)cn2)n1)c1ccccc1I [Compound I-1-605]
5.06	–	O=C(c1ccccc1I)N(C(=O)c1ccccc1I)c1nn(-c2ccccc2Br)nc1Cl [Compound I-2-34]
2.63	–	N#Cc1c(F)cccc1-n1ccc(NC(=O)c2ccccc2I)n1 [Compound I-1-625]
2.15	–	Cc1nn(C)c(F)c1C(=O)Nc1ccn(-c2ccccc2Cl)n1 [Compound I-1-382]
1.90	–	Cn1cc([N+](=O)[O-])c(C(=O)Nc2ccn(-c3c(F)cccc3F)n2)n1 [Compound I-1-241]
2.42	–	O=C(Nc1ccn(-c2ncccc2Br)n1)c1ccccc1C(F)(F)F [Compound I-1-549]
2.91	–	O=C(Nc1ccn(-c2ncc(Cl)cc2Cl)n1)c1ccccc1Cl [Compound I-1-432]
3.73	–	Cc1cc(NC(=O)c2ccccc2I)nn1-c1ccc(F)cc1F [Compound I-1-214]
2.89	–	O=C(Nc1ccn(-c2ccccc2Cl)n1)c1ccccc1F [Compound I-1-19]
3.89	–	Cn1nc(C(C)(C)C)c(Cl)c1C(=O)Nc1ccn(-c2ncc(F)cc2F)n1 [Compound I-1-513]
2.53	–	Cc1cn(-c2ccccc2Cl)nc1NC(=O)c1cccnc1C(F)(F)F [Compound I-1-348]
2.86	–	Cc1ccccc1C(=O)Nc1ccn(-c2ccccc2Cl)n1 [Compound I-1-11]
2.57	–	O=C(Nc1ccn(-c2ncc(F)cc2F)n1)c1c(F)cccc1C(F)(F)F [Compound I-1-491]
2.16	–	O=C(Nc1ccn(-c2ccccc2[N+](=O)[O-])n1)c1cccnc1C(F)(F)F [Compound I-1-416]
2.95	–	O=C(Nc1cnn(-c2c(F)cccc2F)n1)c1sccc1C(F)(F)F [Compound I-2-82]
2.52	–	Cn1cc(C(=O)Nc2ccn(-c3c(F)cccc3F)n2)c(C(F)(F)F)c1 [Compound I-1-240]
2.48	–	N#Cc1ccccc1C(=O)Nc1ccn(-c2c(F)cccc2F)n1 [Compound I-1-272]
2.23	–	Cc1cn(-c2ccccc2Cl)nc1NC(=O)c1cccnc1Br [Compound I-1-357]
2.33	–	O=C(Nc1ccn(-c2ncc(F)cc2Cl)n1)c1c(F)cccc1F [Compound I-1-286]
2.86	–	Cn1nc(C(F)(F)F)c(C(=O)Nc2ccn(-c3ccccc3Cl)n2)c1F [Compound I-1-383]
2.70	–	Cc1cn(-c2ccccc2Cl)nc1NC(=O)c1c(F)cccc1F [Compound I-1-352]
3.56	–	C=CCN(C(=O)c1ccccc1Cl)c1ccn(-c2ccccc2Cl)n1 [Compound I-1-26]
2.82	–	O=C(Nc1ccn(-c2cnc(Cl)cn2)n1)c1ccccc1Cl [Compound I-1-389]
